SMILES strings stand for the structures. “Also recorded” adds a separate entry of the source. Where two headings read alike, the source gives them in different places.

Here are results for five compounds from paper PMC8375385, “In vitro Effect of Harmine Alkaloid and Its N-Methyl Derivatives Against Toxoplasma gondii” (Frontiers in Microbiology, 2021).

For data set [1], the system named is T. gondii γH2A.X. Description: Western blot of γH2A.X in intracellular tachyzoites. Particulars: intracellular tachyzoites, 2 days; CPT 10 μM or 3 7.5 μM alone. Type of data set: cell-based, Toxoplasma gondii. The procedure:
Monolayers of hTERT cells grown in 12-well plates were infected with 5 × 10^6 tachyzoites of the RH Δhxgprt strain. After the invasion process, cells were washed with PBS and incubated with 3 (7.5 μM), CPT (10 μM), 3 (7.5 μM) plus CPT (10 μM), or the vehicle (DMSO), diluted in supplemented DMEM for 2 days. Then, infected cells were harvested by trypsinization, centrifuged, resuspended in PBS, and lysed by freeze–thaw cycling. Samples were resolved by SDS-PAGE (15%), and a western blot assay was conducted. Membranes were incubated (1 h, RT) with rabbit anti-T. gondii γH2A.X (1:500) ([Contreras et al., 2021]) and murine anti-SAG1 (Novus Biologicals, 1:500). Finally, they were washed several times with PBS-T and incubated with alkaline phosphatase-conjugated anti-rabbit or anti-mouse secondary antibodies, diluted to 1:4,000 (Santa Cruz Biotechnology). Immunoreactive protein bands were visualized by the NBT-BCIP (Promega) method. Densitometric analysis of scanned images was performed using the Image-Pro Plus software.

A short description of data set [2]: MTT cytotoxicity on hTERT fibroblasts, 4 days. Particulars: human, MTT, 4 days of incubation (Table 1 footnote b). Type of data set: cell-based, human. The method, then: The same assay was performed for hTERT fibroblasts, incubated for 4 days with different concentrations of 3. Absorbance was read at 540 nm (reference wavelength: 700 nm) in a plate reader (Synergy H1 Hybrid Reader, BioTek). Average absorbance from background wells (without cells, treated as the samples) was subtracted out, to obtain corrected values (A540 corr). The percentage of cell viability was calculated as follows:
Cellviability(%)=A540corrtreatedcells/A540corruntreatedcells×100
CC50 values were obtained by nonlinear regression analysis of cell viability (%) vs. log[compound] with a variable Hill’s slope, using the GraphPad Prism 5.03 software. Each concentration was assayed in triplicates, in three independent sets of experiments. To avoid effects of evaporation, outer wells were not used.

Data set [3] deals with T. gondii RH Δhxgprt tachyzoites. In words: Replication assay (tachyzoites per PV). Type of data set: cell-based, Toxoplasma gondii. Conditions: for % PV (1P): intracellular tachyzoites in Vero cells, 7.5 μM, 2 days of incubation. The procedure:
The effect of βCs on the replication process was evaluated on both extracellular and intracellular treated tachyzoites of the strain RH Δhxgprt. In the first case, the procedure followed was described above (see invasion assay), but after allowing the invasion, samples were washed with PBS and incubated for 1 day with supplemented DMEM (without drugs), before fixing and staining. To investigate βCs’ action on intracellular parasites, confluent Vero cells grown in 24-well plates were infected with 2 × 10^6 tachyzoites per well and treated for 2 days with different concentrations of the investigated drugs or the vehicle (DMSO) as negative control. Finally, they were fixed and immunolabeled as detailed previously. The number of tachyzoites per PV was analyzed under a microscope with × 63 magnification. At least 100 PVs selected at random were scored in triplicates, per compound dose, in two independent sets of experiments. Results are depicted as the mean percentage of PVs (% PV) that contained a geometric progression 2^n (with “n” being a natural number ≥ 0) of tachyzoites per PV ± SEM.

Data set [4] shares this test system. In words: Tachyzoite cell cycle analysis by flow cytometry. Type of data set: cell-based, Toxoplasma gondii. Conditions: infected hTERT fibroblasts, 2 days; 1–3 at 7.5 μM, SDZ at 500 μM. The procedure: Tachyzoites of the RH Δhxgprt strain (3 × 10^6) were added to hTERT cell monolayers grown into six-well plates. After invasion was allowed, the medium was changed, and infected cells were incubated for 2 days with 1, 2, and 3 (7.5 μM); SDZ (500 μM, positive control); or the vehicle (negative control), diluted in supplemented DMEM. Then, cells were detached using trypsin/EDTA solution and gently ruptured by successive passages through 27- and 30-gauge needles in order to obtain free parasites. Samples were centrifuged (2,000 rpm, 10 min), washed with PBS, fixed with 70% ethanol, and stored for 1 day at −20°C. Afterward, samples were processed and stained as described previously ([Munera Lopez et al., 2019]). At least 10,000 tachyzoites per sample were analyzed by flow cytometry measurements, carried out in a BD FACSCalibur equipment. Results were analyzed using FlowJo software 7.6. All assays were performed in duplicates, in two independent experiments.
On the technique in general: Flow cytometry measures light scatter and fluorescence of single cells or particles in a stream.

Data set [5] has as its system T. gondii RH RFP tachyzoites. Description: Lytic cycle growth assay (RFP fluorescence). Type of data set: cell-based, Toxoplasma gondii. Particulars: for effect on tachyzoite growth: up to 10 μM, 3 d.p.i.; for IC50: Toxoplasma gondii, Fibroblast.
The test system of data set [6] is T. gondii RH Δhxgprt tachyzoites. Also noted: method as in Alomar et al. (2013). Particulars: extracellular tachyzoites preincubated 1 h, 0 up to ∼50 μM, Vero cells; ref Alomar et al. (2013); cited from earlier work.
For data set [7] the test system is unchanged. Also noted: method as in Alomar et al. (2013). Conditions: 1-h-pretreated extracellular tachyzoites, 25–40 μM, 1 day of incubation; ref Alomar et al. (2013); cited from earlier work.
The test system of data set [8] is ctDNA. Particulars: pH 7.4, cited from earlier work.
The test system of data set [9] is human topoisomerase II. Also noted: method as in Cao et al., 2005. Particulars: 600 μM; ref Cao et al., 2005; cited from earlier work.
In data set [10] the test system is topoisomerase I. Also noted: method as in Cao et al., 2005. Conditions: cell-free system, ref Cao et al., 2005, cited from earlier work.
Data set [11] is described as follows: MTT cytotoxicity on Vero host cells, 2 days. Particulars: African green monkey (Cercopithecus aethiops), CC50, Vero cells, 2 days of treatment (Table 1 footnote a).
The test system of data set [12] is Vero cells. Description: MTT cytotoxicity on Vero host cells, 2 days. Conditions: Vero cells, 2 days of treatment (Table 1 footnote a).
Data set [13] concerns T. gondii RH Δhxgprt tachyzoites. In words: Invasion assay, pretreated extracellular tachyzoites. Type of data set: cell-based, Toxoplasma gondii. Conditions: extracellular tachyzoites preincubated 1 h, 0 up to ∼50 μM, Vero cells. The method, then: Extracellular tachyzoites of RH Δhxgprt strain (2 × 10^6) were preincubated for 1 h (at 37°C and 5% CO2) with different doses of the assayed compounds (up to 40–50 μM) or the vehicle (DMSO) diluted in supplemented DMEM. Parasites were, then, centrifuged, resuspended in supplemented DMEM, and were allowed to invade Vero cell monolayers grown on coverslips in 24-well plates by incubation for 10 min on ice followed by 1 h at 37°C. Invasion assay was performed as described elsewhere ([Yañuk et al., 2017]). To facilitate counting, cells were analyzed by indirect immunofluorescence assay (IFA). Immunostaining was performed using anti-SAG1 mouse monoclonal (Novus Biologicals, 1:50)/goat anti-mouse Alexa Fluor 488 (Invitrogen, 1:4,000) antibodies. Fifty random fields per sample, with a similar number of host cells, were analyzed under microscope (Zeiss Axio Observer Colibri 7, magnification × 63). The number of parasitophorous vacuoles per field (PV/field) was counted. Data are presented as means of PV/field ± SEM. Two independent experiments were performed in duplicates.

Data set [14] in a line: in vitro. Conditions: African green monkey (Cercopithecus aethiops).
The test system of data set [15] is host cells. Also noted: method as in not given. Conditions: Table 1 footnote c, footnote text not given; ref not given; cited from earlier work.
Data set [16] deals with T. gondii RH strain. Set-up: method as in not given. Conditions: footnote text not given, ref not given, cited from earlier work.
Where [17] appears, read: 72 h, RH RFP strain in hTERT fibroblasts, 3 d.p.i. (Table 1 footnote d), read-out: IC50 (converted).

Take `CC[C@@]1(O)C(=O)OCc2c1cc1n(c2=O)Cc2cc3ccccc3nc2-1` [CPT, camptothecin, reference compound]: the γH2A.X levels result in [1] is recorded as “notable increase”.

Turning to `COc1ccc2c(c1)[nH]c1c(C)nccc12` [Compound 1, harmine], the CC50 at 4 days in data set [2] is 49 µM. The “% PV (1P)” value in data set [3] was determined as 65%. For the same compound, the “effect on tachyzoite cell cycle (DNA content, G1 vs S/M)” value in [4] is “negligible or null effect”. Besides, in data set [5] (CC50 hTERT 4 days / IC50 at 4 d.p.i.), the “selectivity index (SI)” value is given as less than 5. The “effect on tachyzoite growth” value in data set [5] (RH RFP in hTERT fibroblasts) is recorded as “no major impact”. Moreover, the IC50 in data set [5] (72 h) and in data set [5] (96 h) was more than 10 µM in each case. Besides, the “effect on invasion process (PV/field)” value in data set [6] was “inhibited”. In addition, the “change in % PV with two parasites (% PV (2P)) vs control” value in data set [7] was “sharp increase”. In addition, the “overall binding constant to ctDNA” value in data set [8] (ref Yañuk et al., 2018) is 7.7 ± 0.2 × 10^3 M^–1 in bp. For the same compound, the “inhibition of human topoisomerase II” value in [9] is listed as “do not inhibit”. The results for the “inhibition of topoisomerase I activity” value in data set [10] (50 μM) and in data set [10] (150 μM) were “strongly decreases” and “inhibited”, respectively. This compound also showed a CC50 at 2 days in data set [11] of approximately 60 µM. Also, in [12], the CC50 was found to be 57 ± 4 µM.

`COc1ccc2c(c1)[nH]c1c(C)[n+](C)ccc12` [Compound 2, 2-methyl-harminium]: the “effect on invasion process (PV/field)” value in data set [13] is “negligible or rather low effect”. Further, in [3] (1-h-pretreated extracellular tachyzoites, 5–50 μM, 1 day of incubation without drug), the “increase of % PV with one parasite (% PV (1P)) vs control” value is “around fourfold”. In addition, the “% PV (1P)” value in data set [3] came to 68%. Moreover, the “effect on tachyzoite cell cycle (DNA content, G1 vs S/M)” value in [4] is on record as “arrest in S/M phases; also recorded: significant enrichment in tachyzoite DNA content compatible with S/M phases”. The “effect on tachyzoite growth” value in data set [5] (RH RFP in hTERT fibroblasts) is “no major impact”. For the same compound, in [5] (setting [17]), the IC50 – broadly, the concentration that inhibits the measured activity by half – was more than 10 µM. Further, the “overall binding constant to ctDNA” value in [8] (ref Denofrio et al., 2020) was 5.9 ± 0.3 × 10^3 M^–1 in bp. Besides, the CC50 at 2 days in [14] was more than 500 µM.

Take `CCc1nc(N)nc(N)c1-c1ccc(Cl)cc1` [Pyrimethamine, pyrimethamine]: the CC50 in [15] is more than 40.2 µM. For the same compound, the IC50 is 0.8 µM in data set [16] (Table 1 footnote g) and 3.4 µM in data set [16] (reported on RH strain, Table 1 footnote c).

Take `Nc1ccc(S(=O)(=O)Nc2ncccn2)cc1` [SDZ, sulfadiazine, reference compound]: in data set [5] (SDZ 250 and 500 μM, RH RFP in hTERT fibroblasts), the “decrease in RFU values with respect to untreated controls” value was approximately 50%. The IC50 in data set [5] (setting [17]) is approximately 500 µM; in [16] (Table 1 footnote g) it was 2400 to 2800 µM; in data set [16] (Table 1 footnote h) it was 308 µM. In [11] (Vero cells (monolayers)), this compound returned a CC50 at 2 days of more than 500 µM.
